One assay concerns the target T1, human CB1 receptor (Homo sapiens, UniProt P21554).
T1 construct: expressed in transfected cells; membrane-enriched fractions
In words: competitive radioligand binding assay, displacement of [3H]CP55,940, CB1. The settings on record: for inhibition at 10 µM: Table 2, percent inhibition at 10 μM; for IC50: displacement of specific [3H]-CP55940 binding in HEK 293 cells stably transfected with human CB1 receptor. A digest of the protocol: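 Test compound competed with 0.75 nM [3H]CP55,940 for 1.5 hours at 30° C (pH 7.4 Tris buffer with 0.3% BSA) on 0.2˜8 μg membrane fractions from stable human CB1 or CB2 cell lines. Bound radioactivity on washed filters was counted; 1 μM CP55,940 defined non-specific binding.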
A general note: In a radioligand displacement assay an active substance lowers the binding of a labelled ligand.

A further assay has as its target T2, human CB2 receptor (Homo sapiens, UniProt P34972).
T2 construct: expressed in transfected cells; membrane-enriched fractions
The experiment in a line: competitive radioligand binding assay, displacement of [3H]CP55,940, CB2. The settings on record: cells printed in μM. As to the method:
In addition, the affinity of test compounds of this invention toward CB1 and CB2 receptors was determined by competitive radioligand binding assays in vitro. This method differentiates the binding strength between compounds by their abilities in displacing a receptor-specific radioactive ligand. […] The readings of the radioactivity retained allow further analysis of receptor binding, and assist in predictions of the pharmacological activities of the test compounds.
In the assays, CB1 receptors are from human CB1 stably expressed cell lines, and CB2 receptors are from human CB2 stably expressed cell lines. For purification of membrane-enriched fractions, cells were scraped off from the culture dishes in ice-cold buffer A (50 mM Tris, 5 mM MgCl2, 2.5 mM EDTA, pH 7.4, 10% sucrose) with 1 mM PMSF. After sonication, the membrane-enriched fractions were centrifuged for 15 minutes at 2,000×g at 4° C. The supernatant was centrifuged again for 30 minutes at 43,000×g at 4° C. The final pellet was re-suspended in buffer A and stored at −80° C. The protein concentration of the purified membrane was determined by the Bradford method as described by the manual provided by Bio-Rad Laboratories, Inc., Hercules, Calif.
During the receptor binding experiments, 0.2˜8 μg of membrane fractions were incubated with 0.75 nM [^3H]CP55,940 and a test compound in the incubation buffer of 50 mM Tris-HCl, 5 mM MgCl2, 1 mM EDTA, 0.3% BSA, pH 7.4. The non-specific binding was determined by using 1 μM of CP55,940. The mixture was incubated for 1.5 hours at 30° C. in Multiscreen microplates (Millipore, Billerica, Mass.). At the completion of the incubation, the reaction was terminated by Manifold filtration and washed with ice-cold wash buffer (50 mM Tris, pH 7.4, 0.25% BSA) four times. The radioactivity bound to the filters was measured by Topcount (Perkin Elmer Inc.).

Some results are limits rather than exact numbers.

T1 sequence (P21554 whole entry): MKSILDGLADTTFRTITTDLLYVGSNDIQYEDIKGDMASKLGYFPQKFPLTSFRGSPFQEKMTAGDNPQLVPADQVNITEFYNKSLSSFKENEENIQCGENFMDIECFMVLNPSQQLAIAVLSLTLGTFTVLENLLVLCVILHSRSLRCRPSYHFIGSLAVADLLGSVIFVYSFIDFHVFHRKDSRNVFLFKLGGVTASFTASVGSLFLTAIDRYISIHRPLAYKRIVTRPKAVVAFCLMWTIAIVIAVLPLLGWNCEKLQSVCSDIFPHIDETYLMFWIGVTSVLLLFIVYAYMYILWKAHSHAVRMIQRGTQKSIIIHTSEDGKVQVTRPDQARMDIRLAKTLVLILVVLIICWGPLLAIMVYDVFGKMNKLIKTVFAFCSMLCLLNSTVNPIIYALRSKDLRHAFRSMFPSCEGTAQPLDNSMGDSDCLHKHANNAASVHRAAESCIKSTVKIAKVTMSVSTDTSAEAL
T2 sequence (P34972 whole entry): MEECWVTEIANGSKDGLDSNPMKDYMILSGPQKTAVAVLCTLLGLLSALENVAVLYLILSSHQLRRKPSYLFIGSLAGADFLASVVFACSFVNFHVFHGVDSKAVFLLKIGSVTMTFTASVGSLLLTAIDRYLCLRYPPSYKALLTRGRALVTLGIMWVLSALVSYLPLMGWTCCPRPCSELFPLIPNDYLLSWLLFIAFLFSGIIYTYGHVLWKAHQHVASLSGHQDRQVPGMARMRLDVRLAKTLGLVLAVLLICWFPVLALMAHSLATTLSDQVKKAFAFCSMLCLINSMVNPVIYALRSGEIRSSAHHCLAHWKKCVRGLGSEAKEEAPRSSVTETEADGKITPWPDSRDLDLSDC

On to `O=C(Cn1nc(-c2ccc(Cl)cc2)c(-c2ccc(Cl)cc2Cl)n1)NCc1ccccc1F` [Compound 160], for which, at human CB1 receptor, the inhibition (in general, how much of the control response was suppressed) at 10 µM was 88.2%. Also, the IC50 (commonly the concentration at which inhibition is half-maximal) was 262 ± 184 nM on human CB1 receptor and more than 10 µM on human CB2 receptor.
Consider `O=C(Cn1nc(-c2ccc(Cl)cc2)c(-c2ccc(Cl)cc2Cl)n1)NCc1ccc(F)cc1` [Compound 162], for which, at human CB1 receptor, the inhibition at 10 µM worked out at 90.5% and the IC50 came to 449 ± 67.9 nM. This compound also registered an IC50 at human CB2 receptor of more than 10 µM.
At human CB1 receptor, `O=C(Cn1nc(-c2ccc(Cl)cc2)c(-c2ccc(Cl)cc2Cl)n1)NCc1cc(F)ccc1F` [Compound 165] gave an inhibition at 10 µM of 89.8% and an IC50 of 152 ± 71 nM. The IC50 on human CB2 receptor was more than 10 µM.
The matching figures for `O=C(Cn1nc(-c2ccc(Cl)cc2)c(-c2ccc(Cl)cc2Cl)n1)NCc1ccccc1` [Compound 168]: 93.9%, 204 ± 78.1 nM and more than 10 µM.
Consider `O=C(Cn1nc(-c2ccc(Cl)cc2Cl)c(-c2ccc(Cl)cc2Cl)n1)NCc1cccc(F)c1` [Compound 170], for which the IC50 at human CB1 receptor is 25.7 ± 2.9 nM; on human CB2 receptor it was more than 10 µM.
For the compound `O=C(Cn1nc(-c2ccc(Cl)cc2Cl)c(-c2ccc(Cl)cc2Cl)n1)NCc1ccc(F)cc1` [Compound 171], the IC50 at human CB1 receptor was 11.6 ± 3.4 nM; at human CB2 receptor, more than 10 µM.
For the compound `O=C(Cn1nc(-c2ccc(Cl)cc2Cl)c(-c2ccc(Cl)cc2Cl)n1)NCc1cc(F)ccc1F` [Compound 184], the IC50 was 22 ± 6.1 nM at human CB1 receptor and more than 10 µM on human CB2 receptor.
Regarding `Cc1cccc(CNC(=O)Cn2nc(-c3ccc(Cl)cc3Cl)c(-c3ccc(Cl)cc3Cl)n2)c1` [Compound 188], the values for the IC50 at human CB1 receptor and on human CB2 receptor were 51.7 ± 15.5 nM and more than 10 µM, respectively.
The matching figures for `O=C(Cn1nc(-c2ccc(Cl)cc2Cl)c(-c2ccc(Cl)cc2Cl)n1)NCc1ccc(F)cc1F` [Compound 190]: 45.9 ± 18.4 nM and more than 10 µM.
For `O=C(Cn1nc(-c2ccc(Cl)cc2Cl)c(-c2ccc(Cl)cc2Cl)n1)NCc1ccccc1Cl` [Compound 191], the figures for the IC50 on human CB1 receptor and at human CB2 receptor were 48.9 ± 12 nM and more than 10 µM, respectively.
The matching figures for `O=C(Cn1nc(-c2ccc(Cl)cc2Cl)c(-c2ccc(Cl)cc2Cl)n1)NCc1ccc(Cl)cc1` [Compound 192]: 64.8 ± 10.5 nM and more than 10 µM.
Turning to `COc1ccccc1CNC(=O)Cn1nc(-c2ccc(Cl)cc2Cl)c(-c2ccc(Cl)cc2Cl)n1` [Compound 196], the IC50 on human CB1 receptor is 125 ± 23.1 nM; on human CB2 receptor it was more than 10 µM.
The like results for `O=C(Cn1nc(-c2ccc(Cl)cc2Cl)c(-c2ccc(Cl)cc2Cl)n1)NCc1ccc(F)c(F)c1` [Compound 198] were, in that order, 82.9 ± 7 nM and more than 10 µM.
The like results for `CC(NC(=O)Cn1nc(-c2ccc(Cl)cc2Cl)c(-c2ccc(Cl)cc2Cl)n1)c1ccccc1` (centres unmarked) [Compound 202] were, in that order, 48 ± 11.1 nM and more than 10 µM.

Values taken from patent US8293773B2, “1, 2, 3-triazole derivatives as new cannabinoid-1 receptor antagonists” (National Tsing Hua University, priority 2008, dated 2012).
